{"source": "paper PMC6963541", "about": "“Synthesis and Biological Evaluation of Lipophilic Nucleoside Analogues as Inhibitors of Aminoacyl-tRNA Synthetases” (Antibiotics, 2019)"}
{"molecular_target": "T1, E. coli IleRS (Escherichia coli, UniProt P00956)", "T1 construct": "gene ileS; purified recombinant E. coli IleRS", "T1 sequence (P00956 2-938)": "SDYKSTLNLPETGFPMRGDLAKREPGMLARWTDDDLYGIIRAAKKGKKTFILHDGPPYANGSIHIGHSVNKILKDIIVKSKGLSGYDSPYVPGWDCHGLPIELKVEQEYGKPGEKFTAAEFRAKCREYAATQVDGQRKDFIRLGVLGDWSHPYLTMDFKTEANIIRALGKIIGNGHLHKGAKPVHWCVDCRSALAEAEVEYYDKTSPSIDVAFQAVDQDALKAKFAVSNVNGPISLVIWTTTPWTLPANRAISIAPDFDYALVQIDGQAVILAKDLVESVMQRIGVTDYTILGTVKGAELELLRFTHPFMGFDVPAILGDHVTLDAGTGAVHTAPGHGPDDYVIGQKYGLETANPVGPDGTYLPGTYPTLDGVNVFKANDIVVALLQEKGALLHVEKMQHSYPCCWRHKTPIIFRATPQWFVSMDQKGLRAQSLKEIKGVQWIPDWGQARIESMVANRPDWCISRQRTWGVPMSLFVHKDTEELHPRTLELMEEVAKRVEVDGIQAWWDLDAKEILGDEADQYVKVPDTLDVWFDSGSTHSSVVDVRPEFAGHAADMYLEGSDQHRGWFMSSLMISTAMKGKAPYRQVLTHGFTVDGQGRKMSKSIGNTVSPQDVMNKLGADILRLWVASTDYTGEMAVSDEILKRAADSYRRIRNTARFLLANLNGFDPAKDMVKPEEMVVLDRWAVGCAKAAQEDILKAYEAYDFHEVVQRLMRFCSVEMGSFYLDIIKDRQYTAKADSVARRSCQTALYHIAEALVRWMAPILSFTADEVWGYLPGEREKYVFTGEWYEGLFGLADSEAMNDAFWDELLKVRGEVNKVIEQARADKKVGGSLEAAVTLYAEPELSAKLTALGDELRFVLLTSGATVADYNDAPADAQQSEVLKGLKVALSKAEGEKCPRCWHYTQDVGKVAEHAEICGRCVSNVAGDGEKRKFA", "assay": "radiolabel aminoacyl transfer assay ([…]-Ile to tRNA, TCA precipitation)", "type": "biochemical", "conditions": "10 nM IleRS, 50 µM 14C-isoleucine, 2 mg/mL tRNA, 500 µM ATP, 10 mM MgCl2, pH 7.5, 37 °C, 10 min preincubation; dose-response curve not determined"}
{"smiles": "CCCCCCCCCCCCNc1ncnc2c1ncn2[C@@H]1O[C@H](COS(=O)(=O)NC(=O)[C@@H](N)[C@@H](C)CC)[C@@H](O)[C@H]1O", "note": "[6c, 5′-O-(N-L-isoleucyl)-sulfamoyl-N^6-dodecyl-adenosine]", "relative activity": "the dodecyl derivative 6c was active in submicromolar range"}
{"smiles": "CCCCCCCCCCCCCCCCCCNc1ncnc2c1ncn2[C@@H]1O[C@H](COS(=O)(=O)NC(=O)[C@@H](N)[C@@H](C)CC)[C@@H](O)[C@H]1O", "note": "[6d, 5′-O-(N-L-isoleucyl)-sulfamoyl-N^6-octadecyl-adenosine]", "relative activity": "the octadecyl compound 6d was found to be active only in the micromolar range"}
{"molecular_target": "T1, E. coli IleRS", "assay": "radiolabel aminoacyl transfer assay ([…]-Ile to tRNA, TCA precipitation)", "type": "biochemical", "conditions": "not given", "units": {"IC50": "nM"}}
{"smiles": "CC[C@H](C)[C@H](N)C(=O)NS(=O)(=O)OC[C@H]1O[C@@H](n2cnc3c(NC)ncnc32)[C@H](O)[C@@H]1O", "note": "[6a, 5′-O-(N-L-isoleucyl)-sulfamoyl-N^6-methyl-adenosine]", "IC50": "13.9 ± 1"}
{"smiles": "CCCCCCCCNc1ncnc2c1ncn2[C@@H]1O[C@H](COS(=O)(=O)NC(=O)[C@@H](N)[C@@H](C)CC)[C@@H](O)[C@H]1O", "note": "[6b, 5′-O-(N-L-isoleucyl)-sulfamoyl-N^6-octyl-adenosine]", "IC50": "42.8 ± 1"}
{"smiles": "CC[C@H](C)[C@H](N)C(=O)NS(=O)(=O)OC[C@H]1O[C@@H](n2cnc3c(Nc4ccccc4)ncnc32)[C@H](O)[C@@H]1O", "note": "[6e, 5′-O-(N-L-isoleucyl)-sulfamoyl-N^6-phenyl-adenosine]", "IC50": "10.5 ± 1"}
{"smiles": "CC[C@H](C)[C@H](N)C(=O)NS(=O)(=O)OC[C@H]1O[C@@H](n2cnc3c(OC)ncnc32)[C@H](O)[C@@H]1O", "note": "[6f, 5′-O-(N-L-isoleucyl)-sulfamoyl-6-O-methyl-purine riboside]", "IC50": "4.9 ± 1.1"}
